# Measurements from PMC12381739, “Druglike Molecular Degraders of the Oncogenic RNA-Binding Protein HuR” (JACS Au, 2025).
# How the values were obtained:
# Type in all cases: cell-based
# HuR [1] = target: T1, HuR (Homo sapiens, UniProt Q15717); experiment: HuR protein expression by western blot in MCF-7 cells; parameters: endogenous in cells; host or cells: MCF-7
# Source text: Michigan Cancer Foundation-7 (MCF-7) cells were chosen due to their documented overexpression of HuR, which has been linked to cancer pathogenicity in this specific cell line. , Consequently, reducing HuR expression to physiologically normal levels is considered a potential strategy for novel anticancer therapies targeting breast cancers associated with HuR overexpression.
# (§1) Total protein was extracted using RIPA cell lysis buffer (BioPrep) containing a protease inhibitor, and protein concentration was measured using the BCA protein assay (Sigma-Aldrich) according to the manufacturer’s protocol. Approximately 30 μg of total protein were resolved on a 12% SDS-acrylamide gel and transferred to a PVDF membrane (Immobilon FL transfer membrane; Merck). The membrane was washed with 1× Tris-buffered saline (TBS) containing 0.1% (v/v) Tween-20 (TBST; Tris-base, pH 7.6, NaCl, and Tween-20) and blocked in 1× TBST containing 5% (w/v) BSA for 2 h at room temperature. The membrane was then incubated overnight at 4 °C with primary antibodies: a 1:1000 dilution of rabbit anti-ELAVL1/HuR (Cell Signaling Technology, #12582), a 1:1000 dilution of mouse anti-Bcl2 (Cell Signaling Technology, #15071), or a 1:10,000 dilution of rabbit anti-Vinculin (Cell Signaling Technology, #13901) in 1× TBST containing 5% (w/v) BSA. Following primary antibody incubation, the membrane was washed with 1× TBST and incubated with a 1:10,000 dilution of the appropriate horseradish-peroxidase-conjugated secondary antibody (antirabbit IgG: Cell Signaling, #7074 or antimouse IgG: Cell Signaling, #7076) at room temperature for 2 h. After washing three times with 1X TBST (10 min per wash), protein bands were visualized using Clear Band ECL Substrate (Gene Bio-Application) on the Azure C300 Imaging System. The fold change in the expression of the target proteins (HuR or Bcl2) was calculated by normalizing the band intensity to the Vinculin band intensity using ImageJ.
# HuR [2] = target: T1, HuR; experiment: HuR western blot, dose-dependent treatment (Figure S7, cell line not stated); parameters: endogenous in cells; host or cells: MCF-7 or MDA-MB-231 (not given); conditions: 48 h, normalized to vinculin
# Description: as §1, with “MDA-MB-231 and MCF-7 cells were seeded in 6-well plates at approximately 60% confluency in complete growth medium and treated with synthesized compounds at the indicated concentrations or with vehicle for 24 h. Total” for “Total”, “Following primary antibody incubation, the membrane was washed with 1× TBST and incubated with a 1:10,000 dilution of the appropriate horseradish-peroxidase-conjugated secondary antibody (antirabbit IgG: Cell Signaling, #7074 or antimouse IgG: Cell Signaling, #7076) at room temperature for 2 h. After washing three times with 1X TBST (10 min per wash), protein bands were visualized using Clear Band ECL Substrate (Gene Bio-Application) on the Azure C300 Imaging System.” left out, “ImageJ. […]” for “ImageJ.”
# HuR [3] = target: T1, HuR; experiment: Proteasome inhibitor (bortezomib, MG132) mechanistic validation of HuR degradation in MCF-7 cells; parameters: endogenous in cells; host or cells: MCF-7; conditions: MCF-7, with bortezomib or MG132
# Description: MCF-7 cells were seeded in 6-well plates at approximately 60% confluency and incubated for 12 h. The cells were then treated with 1 μM of the proteasome inhibitors Bortezomib (Thermo Fisher Scientific, CAS: 179324-69-7) and MG132 (Aaron Chemicals, CAS: 1211877-36-9). After treatment, the synthesized compounds were added at a concentration of 10 μM, and the cells were incubated for 5 h.
# HuR [4] = target: T1, HuR; experiment: HuR protein expression by western blot in MDA-MB-231 cells; parameters: endogenous in cells; conditions: 48 h
# Description: as §1, with “After washing three times with 1X TBST (10 min per wash), protein bands were visualized using Clear Band ECL Substrate (Gene Bio-Application) on the Azure C300 Imaging System.” left out
# T1 sequence (Q15717 whole entry): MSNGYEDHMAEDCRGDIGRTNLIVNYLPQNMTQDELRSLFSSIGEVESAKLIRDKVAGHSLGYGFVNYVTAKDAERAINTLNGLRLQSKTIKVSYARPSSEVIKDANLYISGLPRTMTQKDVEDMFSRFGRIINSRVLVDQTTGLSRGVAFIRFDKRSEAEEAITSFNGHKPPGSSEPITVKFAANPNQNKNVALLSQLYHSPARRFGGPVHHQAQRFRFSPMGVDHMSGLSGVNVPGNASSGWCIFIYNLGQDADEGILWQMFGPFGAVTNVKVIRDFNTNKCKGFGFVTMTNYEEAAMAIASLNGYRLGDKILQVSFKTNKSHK
smiles,measurement,setting,value
O=C1CCC(N2C(=O)c3cccc(NCc4cn(-c5ccc6sc(C(=O)O)cc6c5)nn4)c3C2=O)C(=O)N1 (stereo not shown) [PRO-HuR3],reduction of HuR expression,"HuR [1]; MCF-7, 10 nM, 48 h",42%
same,onset of activity (HuR degradation),"HuR [1]; MCF-7, 10 μM",48 h
same,time-dependent response of HuR degradation,"HuR [1]; MCF-7, 10 μM",showed a time-dependent response
same,reduction of HuR expression,"HuR [1]; MCF-7, 10 μM, 48 h",~75%
same,degrader activity at intermediate concentration (hook effect),"HuR [1]; around 0.1 μM, 48 h, MCF-7 and MDA-MB-231",loss of degrader activity
same,HuR protein level relative to UT,HuR [2]; 0.01 nM,113%
same,HuR protein level relative to UT,HuR [2]; 0.1 nM,108%
same,degrader activity under 26S proteasome inhibition,HuR [3],completely impaired
same,reduction of HuR expression,"HuR [4]; MDA-MB-231, 10 nM",38%
same,reduction of HuR expression,"HuR [4]; MDA-MB-231, 10 μM",~75%
